Measurements published in patent US20230167101A1, “NOVEL INHIBITORS OF HISTONE […] P300/CBP FOR CANCER THERAPY” (BAYLOR COLLEGE OF MEDICINE, priority 2020, published 2023).

Assays:
HAT domain of human p300 = target: T1, HAT domain of human p300 (Homo sapiens, UniProt Q09472); test: p300 HAT inhibition assay (3H-Ac-CoA, histone H3 (1-21) peptide); type: biochemical; conditions: for activity reduction relative to compound 12: p300 HAT; for IC50: read-out: IC50 against p300 HAT
T1 construct: The HAT domain (1195-1673) of human p300 was cloned, inserted into pGEX-KG vector; made in house; host or cells: E. coli BL21-CodonPlus
T1 sequence (Q09472 1195-1673): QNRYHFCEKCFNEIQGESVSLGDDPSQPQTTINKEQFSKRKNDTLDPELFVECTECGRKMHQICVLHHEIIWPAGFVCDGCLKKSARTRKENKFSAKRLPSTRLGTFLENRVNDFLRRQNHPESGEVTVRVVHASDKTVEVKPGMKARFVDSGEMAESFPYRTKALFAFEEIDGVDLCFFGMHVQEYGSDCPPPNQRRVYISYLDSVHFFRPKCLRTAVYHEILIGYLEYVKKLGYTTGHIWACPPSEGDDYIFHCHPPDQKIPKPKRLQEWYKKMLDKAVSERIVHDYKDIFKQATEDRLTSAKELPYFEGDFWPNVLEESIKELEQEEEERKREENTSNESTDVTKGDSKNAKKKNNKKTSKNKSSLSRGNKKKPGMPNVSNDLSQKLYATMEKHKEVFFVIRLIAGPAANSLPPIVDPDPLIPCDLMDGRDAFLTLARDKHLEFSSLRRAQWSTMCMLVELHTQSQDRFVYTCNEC
Protocol: A biochemical assay to determine the activity and inhibition of recombinant HAT domain of human p300 was developed, using the substrate histone H3 (1-21) peptide and the ^3H-labeled cofactor Ac—CoA.
The HAT domain (1195-1673) of human p300 was cloned, inserted into pGEX-KG vector and the DNA sequence was verified by sequencing. The p300-HAT expression plasmid was transformed into E. coli BL21-CodonPlus strain (Agilent) and cultured at 37° C. in LB medium containing ampicillin (50 µg/mL) and chloramphenicol (34 µg/mL). After the optical density of the bacterial culture reached ~0.9 at 600 nm, p300 HAT expression was induced by adding 300 µM isopropylthiogalactoside (IPTG) at 18° C. for 48 hours. Cells were collected, lysed, centrifuged for 20 min at 20,000 rpm. The supernatant was subjected to column chromatography with glutathione sepharose resins. […] CBP, PCAF and Myst3 HATs were obtained using similar methods.
To determine inhibitory activity, a compound with concentrations ranging from 100 nM to 10 µM was incubated with p300-HAT (10 nM) in 20 µL of 50 mM phosphate buffer (pH = 7.0) containing 0.01% Brij-35 for 10 min at 25° C. […] After 30 min at 25° C., the reaction was stopped by adding 6 N formic acid (5 µL). 20 µL of reaction mixture was then transferred to a small piece of P81 filter paper (Whatman) that binds histone H3 peptide. The filter paper was washed 3x with 50 mM NaHCO3, dried, and transferred into a scintillation vial containing 2 mL of scintillation cocktail. Radioactivity on the filter paper was measured with a Beckman LS-6500 scintillation counter. IC50 values were obtained by using a standard sigmoidal dose response curve fitting in Prism (version 5.0, GraphPad Software, Inc., La Jolla, CA). IC50 values were the mean values from at least three experiments.

Kasumi-1 leukemia cells = test: Cellular histone acetylation, Western blot; type: cell-based; conditions: Kasumi-1 cells, 12 h, 5 and 10 µM
Protocol: Kasumi-1 leukemia cells were treated with increasing concentrations of these compounds for 12 h. Histone was extracted and subjected to electrophoresis separation and Western blot staining to determine levels of acetylation at various lysine residues. […] H3K27 seems to be the most sensitive cellular substrate of p300 HAT. […] This might be due to different mode of inhibition or cell permeability for the two compounds.
About 10^6 Kasumi-1 cells per well were incubated with compound 11 at 0, 5 and 10 µM for 12 hours. Histone proteins were extracted using EpiQuik total histone extraction kit (Epigentek), according to the manufacturer’s protocol. Equal amounts of histones (2 µg) were separated on SDS-PAGE and transferred to PVDF membranes. The blots were probed with primary antibodies against H3K9Ac, H3K18Ac, H3K27Ac and H3 (Cell Signaling), followed by anti-rabbit IgG (Thermo Scientific) secondary antibodies.

Row | SMILES | IC50 (HAT domain of human p300) [µM] | other results
1 | CC(C)c1ccc(-c2cc(CNCC3CCNCC3)sc2-c2ccc(C(C)C)cc2)cc1 [Compound 22] | 5.4 | activity reduction relative to compound 12 (HAT domain of human p300): ~ 8 x
2 | CC(C)(C)c1ccc(-c2cc(COCC3CCNCC3)sc2-c2ccc(C(C)(C)C)cc2)cc1 [Compound 13] |  | inhibitory activity against p300 HAT (in words) (HAT domain of human p300): complete loss of inhibitory activity
3 | c1cc(-c2ccc(-c3cc(CNCC4CCNCC4)sc3-c3ccc(-c4ccoc4)cc3)cc2)co1 [Compound 11] | 1.7 | 
4 | CN(Cc1cc(-c2ccc(C(C)(C)C)cc2)c(-c2ccc(C(C)(C)C)cc2)s1)CC1CCNCC1 [Compound 20] | 4.4 | 
5 | CC(C)(C)c1ccc(-c2cc(CNCC3CCNCC3)oc2-c2ccc(C(C)(C)C)cc2)cc1 [Compound 34] | 9.8 | 
6 | CC(C)(C)c1ccc(-c2cc(CNCCCN)sc2-c2ccc(C(C)(C)C)cc2)cc1 [Compound 16] | 3 | 
7 | CC(C)(C)c1ccc(-c2cc(CNCCC3CCNCC3)sc2-c2ccc(C(C)(C)C)cc2)cc1 [Compound 15] | 2.2 | activity reduction relative to compound 12 (HAT domain of human p300): ~3 fold
8 | CC(C)(C)c1ccc(-c2cc(CN(C=O)CC3CCNCC3)sc2-c2ccc(C(C)(C)C)cc2)cc1 [Compound 21] | 7 | 
9 | CC1=NN(c2ccc(C(=O)O)cc2)C(=O)/C1=C\c1ccc(-c2cc(C)c(C)cc2[N+](=O)[O-])o1 [Compound C646, reference compound] |  | cellular acetylation of histone H3K9, H3K18 and H3K27 (Kasumi-1 leukemia cells): inhibited
10 | CCCCc1ccc(-c2cc(CNCC3CCNCC3)sc2-c2ccc(CCCC)cc2)cc1 [Compound 23] |  | inhibitory activity against p300 HAT (in words) (HAT domain of human p300): Loss of activity
11 | CC(C)(C)c1ccc(-c2cc(C(=O)NCC3CCNCC3)sc2-c2ccc(C(C)(C)C)cc2)cc1 [Compound 1] | 8.6 | 
